Laboratory results from US20250152720A1, “NEW CARBOHYDRATE DERIVATIVES AS MIMETICS OF BLOOD GROUP A AND B ANTIGENS” (REMAB THERAPEUTICS SL, priority 2022, published 2025).

Key:
[1] = system: purified human anti-B antibodies (IgG, IgM); conditions: IgG 0,095 ug/mL and IgM 0.045 ug/mL; increasing glycoconjugate concentrations (0-400 μg/mL); versus Comparative-1; FIG. 11
Description: (§1) ELISA: Maxisorp 96-well flat-bottom plates (Thermo Scientific, Waltham, MA, US) were coated for 18 hours at 4° C. with 50 μL/well of 10 μg/mL of the following PAA-glycoconjugates (as disclosed above in Table 3): 1 (B natural type2) and 5 (A natural type2); in coating buffer (0.05 M carbonate-bicarbonate, pH 9.6). Wells coated only with 50 μL/well of 10 μg/mL of PAA were considered the background of each sample assessed. After coating, the plates were washed three times with 200 μL/well of 0.1% (v/v) PBST using an autowasher and blocked for 1 hour at 4° C. with 100 μL/well of 0.1% (v/v) PBST+1% (w/v) BSA. Washing steps were repeated.
The inhibition samples were prepared in separate tubes using a fixed concentration of anti-A or anti-B antibodies, and an increasing concentration of the following polylysine glycoconjugate inhibitors, prepared in Example 4 (0-400 μg/mL): • Comparative-1 (comprising natural B type-II antigen) • Example 4.1 (comprising analogue of Example 1.1) • Comparative-2 (comprising natural A type-II antigen) • Example 4.8 (comprising analogue of Example 1.8) […]
(§2) After washing steps, plates were incubated for 0.5 hours at 25° C. […] The reaction was stopped with 50 μL/well of 3N HCl, and the resulting absorbance was registered at 490 nm using a microplate reader.
The percentage of removal (%) was calculated referred to the baseline condition (without inhibitor compound). […]

[2] = system: purified anti-B antibodies binding to red blood cells (Group B); experiment: Flow Cytometry inhibition of binding of purified anti-B antibodies to red blood cells (Group B) (Example 6.4); format: cell-based, human; conditions: anti-B 1 μg/mL
Description: The capacity to inhibit the binding of purified anti-B antibodies to red blood cells (Group B), measured by Flow Cytometry was tested. The Flow Cytometry assay was performed as follows: […] Afterwards, primary antibodies with the corresponding inhibitor were added. […] The samples were then incubated for 30 minutes at 37° C. (in the dark, mild horizontal shaking 30-40 rpm). Afterwards the samples were washed twice with PBS (centrifuged at 300 g. 3 minutes), and the supernatants were removed by aspiration. Then, 50 μL of the corresponding fluorochrome secondary anti-Ig antibody (7.5 μg/mL of goat anti-human IgG Alexa Fluor 647. Jackson Immunoresearch, West Grove, PA, USA, and 20 μg/mL of goat anti-human IgM C[…], Sigma-Aldrich, St. Louis, MO, USA) diluted in PBS were added to the RBC and incubated for 35 minutes at 37° C. (in the dark). The samples were washed twice with PBS (centrifuged at 300 g, 3 minutes), and the supernatants were removed by aspiration. Finally, the cells were resuspended in filtered PBS. Cells incubated with only PBS were used as a negative control for the experiment. Cells incubated only with secondary antibodies were considered background signals. Flow Cytometry analysis was performed on a Beckman Coulter Gallios Flow Cytometry analyzer using the blue (488 nm-22 mW) and red (635 nm-25 mW) solid-state laser as exciting source. Every single FACS determination recorded about 20,000 total events. Data was analyzed with KALUZA software (Beckman Coulter, CA, USA). The inhibitory capacity was expressed as a percentage of removal referred to the baseline condition (in ordinates).

[3] = system: purified human anti-A antibodies (IgG, IgM); conditions: IgG 0.075 ug/mL and IgM 0.185 ug/mL; glycoconjugate at 10, 100 and 400 μg/mL; versus Comparative-2; FIG. 10
Description: as §1
The tubes were incubated for 18 hours at 4° C. and then a convenient dilution of inhibition mix to the ELISA plate (50 μL/vell) was added and incubated for 0.5 hours at 25° C. in a rocker.
as §2
To quantify the antibody levels. […]
The percentage of removal (%) was calculated referred to the baseline condition (without inhibitor compound).

“Polyfysine DP1000 conjugate with tetrasaccharide Glcα1-3(Fucα1-2)Galβ1-4GlcNAcβ (Example 1.1) (25%) [Example 4.1]” was tested, and the “capacity to inhibit human purified anti-B antibodies (percentage of removal)” value [1] was “lower capacity to inhibit human purified anti-B antibodies than the natural comparator”, the “percentage of removal referred to the baseline condition, IgG” value ([2]; inhibitor 2.5 ug/mL) was 5.64% and the “percentage of removal referred to the baseline condition, IgM” value ([2]; inhibitor 2.5 ug/mL) was 6.35%.

For “Polylysine DP1000 Conjugate with Galα1-3(Fucα1-2)Galβ1-4GlcNAcβB (Type2) Tetrasaccharide [Comparative-1, reference compound]”, the “percentage of removal referred to the baseline condition, IgG” value ([2]; inhibitor 0.25 ug/mL) was 15.12% and the “percentage of removal referred to the baseline condition, IgM” value ([2]; inhibitor 0.25 ug/mL) was 26.4%.

For “Polylysine DP1000 Conjugate with Trisaccharide GlcNAcα1-3(Fucα1-2)Galβ (Example 1.8) (25%) [Example 4-8]”, the “capacity to inhibit human purified anti-A antibodies (percentage of removal)” value [3] was “higher capacity to inhibit human purified anti-A antibodies than the comparator”.
